From patent US12486471B2, “Perfume formulation for delivery system” (FIRMENICH SA, priority 2019, dated 2025)

Assay: Odor threshold concentration (Log T / Log ODT) by gas chromatograph sniff port with panelists
Parameters: species or system human
Protocol: “High impact perfume raw materials” should be understood as perfume raw materials having a Log T<−4. The odor threshold concentration of a chemical compound is determined in part by its shape, polarity, partial charges and molecular mass. For convenience, the threshold concentration is presented as the common logarithm of the threshold concentration, i.e., Log [Threshold] (“Log T”).
The odor threshold concentration of a perfuming compound is determined by using a gas chromatograph (“GC”). Specifically, the gas chromatograph is calibrated to determine the exact volume of the perfume oil ingredient injected by the syringe, the precise split ratio, and the hydrocarbon response using a hydrocarbon standard of known concentration and chain-length distribution. The air flow rate is accurately measured and, assuming the duration of a human inhalation to last 12 seconds, the sampled volume is calculated. […] To determine the threshold concentration, solutions are delivered to the sniff port at the back-calculated concentration. A panelist sniffs the GC effluent and identifies the retention time when odor is noticed. The average across all panelists determines the odor threshold concentration of the perfuming compound. The determination of odor threshold is described in more detail in C.

[1] = ingredient of Perfume oil A (Table 1)
[2] = ingredient of Perfume oil B (Table 3)
[3] = ingredient of Perfume oil C (Table 5)
[4] = ingredient of Perfume oil D (Table 7)

| Molecule | Log ODT [1] | Log ODT [2] | Log ODT [3] | Log ODT [4] |
| --- | --- | --- | --- | --- |
| TRICYCLO[5.2.1.0~2,6~]DEC-3-EN-8-YL ACETATE (A) + TRICYCLO[5.2.1.0~2,6~]DEC-4-EN-8-YL ACETATE (B) | >−4 | >−4 | – | – |
| C=CCCC(=O)C1=CCCC(C)(C)C1 | – | <−4 | <−4 | – |
| (+)-(3S)-3-[(1R)-4-METHYL-3-CYCLOHEXEN-1-YL]BUTANAL (A) + (+)-(3R)-3-[(1R)-4-METHYL-3-CYCLOHEXEN-1-YL]BUTANAL | – | – | – | >−4 |
| 2-METHYLBUTYL SALICYLATE (A) + PENTYL SALICYLATE (B) | >−4 | – | – | – |
| C=CC(C)(CCC=C(C)C)OC(C)=O (racemic) [(+−)-1,5-DIMETHYL-1-VINYL-4-HEXENYL ACETATE] | >−4 | – | >−4 | – |
| (2RS,4SR)-4-METHYL-2-(2-METHYL-1-PROPEN-1-YL)TETRAHYDRO-2H-PYRAN (A) + (2RS,4RS)-4-METHYL-2-(2-METHYL-1-PROPEN-1-YL)TETRAHYDRO-2H-PYRAN (B) | >−4 | >−4 | – | – |
| CCCCCCOC(=O)c1ccccc1O [HEXYL 2-HYDROXYBENZOATE] | >−4 | – | – | – |
| CC1(C)CC=C(CCC=O)CC1 | >−4 | – | – | – |
| 3,5,6-TRIMETHYL-3-CYCLOHEXENE-1-CARBALDEHYDE (A) + 2,4,6-TRIMETHYL-3-CYCLOHEXENE-1-CARBALDEHYDE (B) | – | – | >−4 | – |
| CC/C=C\CCOC(=O)C(C)C [(Z)-3-HEXENYL ISOBUTYRATE] | – | – | >−4 | – |
| CC(=O)O[C@@H]1CC2CC[C@]1(C)C2(C)C [(1R,2R)-1,7,7-TRIMETHYL-BICYCLO[2.2.1]HEPT-2-YL ACETATE] | – | – | >−4 | >−4 |
| (2Z)-1,1-DIETHOXY-3,7-DIMETHYL-2,6-OCTADIENE (A) + (2E)-1,1-DIETHOXY-3,7-DIMETHYL-2,6-OCTADIENE (B) | – | >−4 | – | >−4 |
| CC(=O)/C=C/C1=C(C)CCCC1(C)C | <−4 | – | – | – |
| CCCCCCCCCC=O [DECANAL] | – | – | – | >−4 |
| CC/C=C\CCOC(C)=O [(Z)-3-HEXENYL ACETATE] | – | – | >−4 | – |
| .ALPHA.-DIHYDROTERPINEOL (A) + BETA.-DIHYDROTERPINEOL (B) | – | >−4 | – | – |
| CC/C=C(\C)C(O)CCCCC (racemic) [(+−)-(E)-4-METHYL-3-DECEN-5-OL] | >−4 | >−4 | – | – |
| 3,7-DIMETHYL-2,6-NONADIENENITRILE (A) + 3,7-DIMETHYL-3,6-NONADIENENITRILE (B) | – | – | >−4 | – |
| CCOC(=O)C(C)CC (racemic) [(+−)-ETHYL 2-METHYLBUTANOATE] | >−4 | – | – | – |
| CC1=CCC(C(C)(C)S)CC1 (racemic) [(+−)-2-(4-METHYL-3-CYCLOHEXEN-1-YL)-2-PROPANETHIOL] | – | <−4 | <−4 | – |
| CC12CCC(CC1)C(C)(C)O2 | – | >−4 | >−4 | >−4 |
| 3-(4-ETHYLPHENYL)-2,2-DIMETHYLPROPANAL (A) + 3-(2-ETHYLPHENYL)-2,2-DIMETHYLPROPANAL (B) | – | >−4 | – | – |
| (1RS,2RS)-2,4-DIMETHYL-3-CYCLOHEXENE-1-CARBALDEHYDE (A) + (1RS,2SR)-2,4-DIMETHYL-3-CYCLOHEXENE-1-CARBALDEHYDE (B) | >−4 | – | >−4 | – |
| CC1(C)CCC[C@]2(C)[C@H]3CCO[C@]3(C)CC[C@@H]12 [(−)-(3AR,5AS,9AS,9BR)-3A,6,6,9A-TETRAMETHYLDODECAHYDRONAPHTHO[2,1-B]FURAN] | – | <−4 | – | <−4 |
| COCCc1ccccc1 [(2-METHOXYETHYL)BENZENE] | – | >−4 | – | – |

| Molecule | Log ODT [1] | Log ODT [2] | Log ODT [3] | Log ODT [4] |
| --- | --- | --- | --- | --- |
| CC(C)CCCC(C)CCO (racemic) | – | >−4 | – | – |
| C=CC(C)CCCC(C)(C)O (racemic) | >−4 | – | – | – |
| CC(=O)OCCc1ccccc1 [2-PHENYLETHYL ACETATE] | >−4 | – | – | – |
| COc1ccc(C)cc1 [1-METHOXY-4-METHYLBENZENE] | >−4 | – | – | – |
| O=C1CCCCCCCCCCCCCCO1 [OXACYCLOHEXADECAN-2-ONE] | – | – | >−4 | – |
| CC1=CCC2C[C@@H]1C2(C)C (single isomer, unassigned; (-)) | – | – | >−4 | – |
| CCCCCCOC(C)=O [HEXYL ACETATE] | >−4 | – | – | – |
| CCCCC[C@H]1C(=O)CC[C@@H]1CC(=O)OC (racemic) [METHYL 2-((1RS,2RS)-3-OXO-2-PENTYLCYCLOPENTYL)ACETATE] | >−4 | – | >−4 | – |
| CCCCCCCCCC(C)=O [Capsule 2-UNDECANONE, 2-UNDECANONE] | – | >−4 | – | – |
| CC1=CC2CC(C=O)C1CC2C(C)C (centres unmarked) [8-ISOPROPYL-6-METHYL-BICYCLO[2.2.2]OCT-5-ENE-2-CARBALDEHYDE] | – | <−4 | – | <−4 |
| COc1ccc2ccccc2c1 [2-METHOXYNAPHTHALENE] | – | – | <−4 | <−4 |
| C/C=C/C(=O)[C@@H]1[C@@H](C)C=CCC1(C)C (racemic) | <−4 | <−4 | – | – |
| (+−)-4-METHYLENE-2-PHENYLTETRAHYDRO-2H-PYRAN (A) + (+−)-4-METHYL-6-PHENYL-3,6-DIHYDRO-2H-PYRAN (B) + (+−)-4-METHYL-2-PHENYL-3,6-DIHYDRO-2H-PYRAN (C) | – | <−4 | – | <−4 |
| (+−)-(3E)-3-METHYL-4-(2,6,6-TRIMETHYL-2-CYCLOHEXEN-1-YL)-3-BUTEN-2-ONE (A) + (+−)-(1E)-1-(2,6,6-TRIMETHYL-2-CYCLOHEXEN-1-YL)-1-PENTEN-3-ONE (B) | – | – | <−4 | – |
| 10-UNDECENAL (A) + (9E)-9-UNDECENAL (B) + (9Z)-9-UNDECENAL (C) | – | <−4 | <−4 | – |
| CCCCCCCC=O [OCTANAL] | – | – | – | >−4 |
| c1ccc(Oc2ccccc2)cc1 [1,1′-OXYDIBENZENE] | >−4 | – | – | – |
| CC(=O)OCCC(C)CCC=C(C)C (centres unmarked) [37-DIMETHYL-6-OCTENYL ACETATE] | – | – | >−4 | – |
| CC(C)=CCCC(C)C=O (racemic) | >−4 | >−4 | – | – |
| CCCCCCCCCC(C)C=O (racemic) [(+−)-2-METHYLUNDECANAL] | <−4 | <−4 | <−4 | <−4 |
| COc1nccnc1CCCC(C)C | – | <−4 | – | – |
| CCCCCCCC1CCC(=O)O1 (racemic) [(+−)-5-HEPTYLDIHYDRO-2(3H)-FURANONE] | – | – | <−4 | – |
| 1-OXA-12-CYCLOHEXADECEN-2-ONE (A) + 1-OXA-13-CYCLOHEXADECEN-2-ONE (B) | – | – | >−4 | – |
| CC(C)c1cccc(C(C)CC=O)c1 (racemic) [(+−)-3-(3-ISOPROPYL-1-PHENYL)BUTANAL] | – | <−4 | – | – |
